Assay results reported in PubChem BioAssay AID2060885 (Molecular Pharmacology Branch, DTP, NCI, 2025).

Test system: NCI-H23 complex spheroids with HUVEC/MSC, viability
Assay: Anticancer human tumor NCI-H23 cell line growth inhibition [RAS];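 further: spheroids exposed to compound for 7 days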;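 on viability, T/C: 100% = DMSO vehicle control viability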
Conditions: for IC50: curve of first compound; for viability, T/C: stronger effect = lower value
How it was run: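 Multi-cell-type spheroids: tumor cells plus HUVEC endothelial cells and mesenchymal stem cells. RAS-pathway inhibitors were combined with targeted agents, each dosed in half-log steps down from clinical Cmax, or from 10 microM when Cmax was unknown.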

[1] = second compound 0.0316 µM, first compound 0.0316 µM
[2] = second compound 0.0316 µM, first compound 0.1 µM
[3] = second compound 0.0316 µM, first compound 0.316 µM
[4] = second compound 0.0316 µM, first compound 1 µM
[5] = second compound 0.0316 µM, first compound 3.16 µM
[6] = second compound 0.0316 µM, first compound 10 µM
[7] = second compound 0.1 µM, first compound 0.0316 µM
[8] = second compound 0.1 µM, first compound 0.1 µM
[9] = second compound 0.1 µM, first compound 0.316 µM
[10] = second compound 0.1 µM, first compound 1 µM
[11] = second compound 0.1 µM, first compound 3.16 µM
[12] = second compound 0.1 µM, first compound 10 µM
[13] = second compound 0.316 µM, first compound 0.0316 µM
[14] = second compound 0.316 µM, first compound 0.1 µM
[15] = second compound 0.316 µM, first compound 0.316 µM
[16] = second compound 0.316 µM, first compound 1 µM
[17] = second compound 0.316 µM, first compound 3.16 µM
[18] = second compound 0.316 µM, first compound 10 µM
[19] = second compound 1 µM, first compound 0.0316 µM
[20] = second compound 1 µM, first compound 0.1 µM
[21] = second compound 1 µM, first compound 0.316 µM
[22] = second compound 1 µM, first compound 1 µM
[23] = second compound 1 µM, first compound 3.16 µM
[24] = second compound 1 µM, first compound 10 µM
[25] = second compound 3.16 µM, first compound 0.0316 µM
[26] = second compound 3.16 µM, first compound 0.1 µM
[27] = second compound 3.16 µM, first compound 0.316 µM
[28] = second compound 3.16 µM, first compound 1 µM
[29] = second compound 3.16 µM, first compound 3.16 µM
[30] = second compound 3.16 µM, first compound 10 µM
[31] = second compound 10 µM, first compound 0.0316 µM
[32] = second compound 10 µM, first compound 0.1 µM
[33] = second compound 10 µM, first compound 0.316 µM
[34] = second compound 10 µM, first compound 1 µM
[35] = second compound 10 µM, first compound 3.16 µM
[36] = second compound 10 µM, first compound 10 µM

CC1(O)CCCC1n1c(=O)c(C(F)F)cc2cnc(NC3CCN(S(C)(=O)=O)CC3)nc21 (centres undefined) + C#Cc1c(F)ccc2cc(O)cc(-c3ncc4c(N5CC6CCC(C5)N6)nc(OCC56CCCN5CC(F)C6)nc4c3F)c12
IC50 (second compound 0.0316 µM): 5.49 µM
IC50 (second compound 0.1 µM): 5.24 µM
IC50 (second compound 0.316 µM): 4.83 µM
IC50 (second compound 1 µM): 3.91 µM
IC50 (second compound 3.16 µM): < 0.0316 µM
IC50 (second compound 10 µM): < 0.0316 µM
viability, T/C [1]: 93.3%
viability, T/C [2]: 92.8%
viability, T/C [3]: 75.2%
viability, T/C [4]: 80.1%
viability, T/C [5]: 81.7%
viability, T/C [6]: 15.6%
viability, T/C [7]: 90.2%
viability, T/C [8]: 87.4%
viability, T/C [9]: 58.7%
viability, T/C [10]: 77.3%
viability, T/C [11]: 76.4%
viability, T/C [12]: 16.3%
viability, T/C [13]: 86.5%
viability, T/C [14]: 74.1%
viability, T/C [15]: 58%
viability, T/C [16]: 65%
viability, T/C [17]: 72.2%
viability, T/C [18]: 13.7%
viability, T/C [19]: 62.6%
viability, T/C [20]: 66.1%
viability, T/C [21]: 46.6%
viability, T/C [22]: 52.7%
viability, T/C [23]: 66.3%
viability, T/C [24]: 10.9%
viability, T/C [25]: 48.3%
viability, T/C [26]: 40.2%
viability, T/C [27]: 34.7%
viability, T/C [28]: 40%
viability, T/C [29]: 42%
viability, T/C [30]: 7.05%
viability, T/C [31]: 32.6%
viability, T/C [32]: 28.3%
viability, T/C [33]: 24.9%
viability, T/C [34]: 27.6%
viability, T/C [35]: 29.6%
viability, T/C [36]: 2.78%

CCC(CC)c1cc(NC2CCC(N)C2)n2nccc2n1 (centres undefined) + C#Cc1c(F)ccc2cc(O)cc(-c3ncc4c(N5CC6CCC(C5)N6)nc(OCC56CCCN5CC(F)C6)nc4c3F)c12
IC50 (second compound 0.0316 µM): 1.8 µM
IC50 (second compound 0.1 µM): 1.78 µM
IC50 (second compound 0.316 µM): 1.68 µM
IC50 (second compound 1 µM): 1.44 µM
IC50 (second compound 3.16 µM): 1.11 µM
IC50 (second compound 10 µM): < 0.0316 µM
viability, T/C [1]: 102%
viability, T/C [2]: 129%
viability, T/C [3]: 99.8%
viability, T/C [4]: 89.4%
viability, T/C [5]: 12.8%
viability, T/C [6]: 1.4%
viability, T/C [7]: 109%
viability, T/C [8]: 127%
viability, T/C [9]: 104%
viability, T/C [10]: 90.9%
viability, T/C [11]: 9.22%
viability, T/C [12]: 1.06%
viability, T/C [13]: 113%
viability, T/C [14]: 128%
viability, T/C [15]: 98.9%
viability, T/C [16]: 83.1%
viability, T/C [17]: 10.2%
viability, T/C [18]: 1.06%
viability, T/C [19]: 108%
viability, T/C [20]: 121%
viability, T/C [21]: 92%
viability, T/C [22]: 71.6%
viability, T/C [23]: 9.15%
viability, T/C [24]: 0.7%
viability, T/C [25]: 76.2%
viability, T/C [26]: 70.1%
viability, T/C [27]: 57.7%
viability, T/C [28]: 55.3%
viability, T/C [29]: 5.85%
viability, T/C [30]: 0.62%
viability, T/C [31]: 36.7%
viability, T/C [32]: 45.5%
viability, T/C [33]: 41.9%
viability, T/C [34]: 37.9%
viability, T/C [35]: 3.49%
viability, T/C [36]: 1.1%
